In patent US4608373A, “Cephem compounds” (Yamanouchi Pharmaceutical Co., Ltd., priority 1982, dated 1986):
≈ marks a conversion by molar mass, not a printed value. Counter-ions that a name gives are not always drawn. Like-named read-outs stand apart in the source and are kept apart here.

Assays:
Type in all cases: cell-based
Staph. aureus ATCC 6538P = experiment: Antibacterial activity (MIC), Staph. aureus ATCC 6538P; conditions: Staphylococcus aureus, ATCC6538P, read-out: MIC (minimum effective inhibitory concentration)
Excerpt: (§1) Antibacterial activities (minimum effective inhibitory concentrations) of the compounds of formula I are shown in the following table in comparison with those of cefatazidime having the structure [drawing 5] and cefmenoxime having the structure [drawing 6]

E. coli Ebara = experiment: Antibacterial activity (MIC), E. coli Ebara; conditions: Escherichia coli, read-out: MIC (minimum effective inhibitory concentration)
Excerpt: as §1

[1] = system: Ent. aerogenes ATCC 13048 (MS-1); experiment: Antibacterial activity (MIC), Ent. aerogenes ATCC 13048 (MS-1); conditions: Klebsiella aerogenes, ATCC13048, read-out: MIC (minimum effective inhibitory concentration)
Excerpt: as §1

Proteus morgani IID 602 = experiment: Antibacterial activity (MIC), Proteus morgani IID 602; conditions: read-out: MIC (minimum effective inhibitory concentration)
Excerpt: as §1

Serr. marcescens IID 620 = experiment: Antibacterial activity (MIC), Serr. marcescens IID 620; conditions: Serratia marcescens
Excerpt: as §1

Staph. aureus Smith = experiment: Antibacterial activity (MIC), Staph. aureus Smith; conditions: Staphylococcus aureus, read-out: MIC (minimum effective inhibitory concentration)
Excerpt: as §1

[2] = system: Ps. aeruginosa NCTC 10490; experiment: Antibacterial activity (MIC), Ps. aeruginosa NCTC 10490; conditions: Pseudomonas aeruginosa, NCTC10490, read-out: MIC (minimum effective inhibitory concentration)
Excerpt: as §1

Ent. cloacae V-8 = experiment: Antibacterial activity (MIC), Ent. cloacae V-8; conditions: Enterobacter cloacae, V8, read-out: MIC (minimum effective inhibitory concentration)
Excerpt: as §1

Staph. aureus Terashima = experiment: Antibacterial activity (MIC), Staph. aureus Terashima; conditions: Staphylococcus aureus, read-out: MIC (minimum effective inhibitory concentration)
Excerpt: as §1

[3] = system: Kleb. pneumoniae ATCC 10031; experiment: Antibacterial activity (MIC), Kleb. pneumoniae ATCC 10031; conditions: Klebsiella pneumoniae, ATCC10031, read-out: MIC (minimum effective inhibitory concentration)
Excerpt: as §1

Ps. aeruginosa IID 5142 = experiment: Antibacterial activity (MIC), Ps. aeruginosa IID 5142; conditions: Pseudomonas aeruginosa, IID5142, read-out: MIC (minimum effective inhibitory concentration)
Excerpt: as §1

[4] = IID620, Serr. marcescens IID 620, read-out: MIC (minimum effective inhibitory concentration)

SMILES	MIC (Staph. aureus ATCC 6538P) [µg/mL]	MIC (E. coli Ebara; E. coli Ebara) [µg/mL]	MIC [1] [µg/mL]	MIC (Proteus morgani IID 602; Proteus morgani IID 602) [µg/mL]	MIC (Serr. marcescens IID 620; [4]) [µg/mL]	MIC (Staph. aureus Smith) [µg/mL]	MIC [2] [µg/mL]	MIC (Ent. cloacae V-8) [µg/mL]	MIC (Staph. aureus Terashima) [µg/mL]	MIC [3] [µg/mL]	MIC (Ps. aeruginosa IID 5142) [µg/mL]	MIC (E. coli Ebara) [µg/mL]	MIC (Proteus morgani IID 602) [µg/mL]	MIC (Serr. marcescens IID 620; IID620, read-out: MIC (minimum effective inhibitory concentration)) [µg/mL]
CC(=O)OCC1=C(C(=O)O)N2C(=O)C(NC(=O)/C(=N\OCc3csc(N)n3)c3csc(N)n3)[C@H]2SC1 (stereo partly drawn) [2(b), (Z)-7-{α-(2-amino-4-thiazolyl)-α-[(2-amino-4-thiazolyl)methoxyimino]acetamido}-3-acetoxymethyl-3-cephem-4-carboxylic acid]	1.56 (≈ 2.82 µM)	≤ 0.2	1.56 (≈ 2.82 µM)	0.39 (≈ 0.704 µM)	0.78 (≈ 1.41 µM)	1.56 (≈ 2.82 µM)	0.39 (≈ 0.704 µM)	3.13 (≈ 5.65 µM)	3.13 (≈ 5.65 µM)	≤ 0.2	25 (≈ 45.2 µM)			
CC(C)(O/N=C(\C(=O)N[C@@H]1C(=O)N2C(C(=O)[O-])=C(C[n+]3ccccc3)CS[C@H]12)c1csc(N)n1)C(=O)O [CD, Ceftazidime, reference compound]	6.25 (≈ 11.4 µM)		0.39 (≈ 0.714 µM)			6.25 (≈ 11.4 µM)	0.78 (≈ 1.43 µM)	1.56 (≈ 2.85 µM)	12.5 (≈ 22.9 µM)	≤ 0.2	1.56 (≈ 2.85 µM)	≤ 0.2	≤ 0.2	≤ 0.2
CO/N=C(\C(=O)N[C@@H]1C(=O)N2C(C(=O)O)=C(CSc3nnnn3C)CS[C@H]12)c1csc(N)n1 [CX, Cefmenoxime, reference compound]	3.13 (≈ 6.12 µM)	0.2 (≈ 0.391 µM)		≤ 0.2	0.2 (≈ 0.391 µM)	6.25 (≈ 12.2 µM)	1.56 (≈ 3.05 µM)	3.13 (≈ 6.12 µM)	12.5 (≈ 24.4 µM)	≤ 0.2	100 (≈ 195 µM)			
Cn1nc(O)c(=O)nc1SCC1=C(C(=O)O)N2C(=O)C(NC(=O)/C(=N\OCc3csc(N)n3)c3csc(N)n3)[C@H]2SC1 (stereo partly drawn) [Example 5, (Z)-7-{α-(2-amino-4-thiazolyl)-α-[(2-amino-4-thiazolyl)methoxyimino]acetamido}-3-{[(2,5-dihydro-6-hydroxy-2-methyl-5-oxo-as-triazine-3-yl)thio]methyl}-3-cephem-4-carboxylic acid]	3.13 (≈ 4.8 µM)	≤ 0.2	1.56 (≈ 2.39 µM)	0.39 (≈ 0.597 µM)	0.78 (≈ 1.19 µM)	3.13 (≈ 4.8 µM)	1.56 (≈ 2.39 µM)	1.56 (≈ 2.39 µM)	12.5 (≈ 19.2 µM)	≤ 0.2	12.5 (≈ 19.2 µM)			
Nc1nc(CO/N=C(\C(=O)NC2C(=O)N3C(C(=O)[O-])=C(C[n+]4cccc(CC(=O)O)c4)CSC23)c2csc(N)n2)cs1 (stereo not drawn) [Example 12, (Z)-7-{α-(2-amino-4-thiazolyl)-α-[(2-amino-4-thiazolyl)methoxyimino]acetamido}-3-(3-carboxylatemethyl-1-pyridiniomethyl)-3-cephem-4-carboxylate mono-sodium salt]	3.13	1.56	1.56	0.78	≤ 0.2	3.13	1.56	3.13	6.25	≤ 0.2	25			
Nc1nc(CO/N=C(\C(=O)NC2C(=O)N3C(C(=O)[O-])=C(C[n+]4cccc(C(=O)O)c4)CSC23)c2csc(N)n2)cs1 (stereo not drawn) [Example 13, (Z)-7-{α-(2-amino-4-thiazolyl)-α-[(2-amino-4-thiazolyl)methoxyimino]acetamido}-3-(3-carboxylate-1-pyridiniomethyl)-3-cephem-4-carboxylatemono-sodium salt]	3.13	3.13	3.13	1.56	≤ 0.2	3.13	1.56	3.13	6.25	≤ 0.2	25			

More lines, main results first:

MIC (Staph. aureus ATCC 6538P) [µg/mL]	MIC (E. coli Ebara; E. coli Ebara) [µg/mL]	MIC [1] [µg/mL]	MIC (Proteus morgani IID 602; Proteus morgani IID 602) [µg/mL]	MIC (Serr. marcescens IID 620; [4]) [µg/mL]	MIC (Staph. aureus Smith) [µg/mL]	MIC [2] [µg/mL]	MIC (Ent. cloacae V-8) [µg/mL]	MIC (Staph. aureus Terashima) [µg/mL]	MIC [3] [µg/mL]	MIC (Ps. aeruginosa IID 5142) [µg/mL]	SMILES	MIC (E. coli Ebara) [µg/mL]	MIC (Proteus morgani IID 602) [µg/mL]	MIC (Serr. marcescens IID 620; IID620, read-out: MIC (minimum effective inhibitory concentration)) [µg/mL]
3.13 (≈ 6.32 µM)	1.56 (≈ 3.15 µM)	6.25 (≈ 12.6 µM)	3.13 (≈ 6.32 µM)	1.56 (≈ 3.15 µM)	6.25 (≈ 12.6 µM)	6.25 (≈ 12.6 µM)	6.25 (≈ 12.6 µM)	12.5 (≈ 25.2 µM)	≤ 0.2		CC1=C(C(=O)O)N2C(=O)C(NC(=O)/C(=N\OCc3csc(N)n3)c3csc(N)n3)[C@H]2SC1 (stereo partly drawn) [1(b), (Z)-7-{α-(2-amino-4-thiazolyl)-α-[(2-amino-4-thiazolyl)methoxyimino]acetamido}-3-methyl-3-cephem-4-carboxylic acid]			
0.78 (≈ 1.48 µM)	3.13 (≈ 5.93 µM)	6.25 (≈ 11.8 µM)	1.56 (≈ 2.96 µM)	1.56 (≈ 2.96 µM)	0.78 (≈ 1.48 µM)	1.56 (≈ 2.96 µM)	3.13 (≈ 5.93 µM)	1.56 (≈ 2.96 µM)	≤ 0.2		CSC1=C(C(=O)O)N2C(=O)C(NC(=O)/C(=N\OCc3csc(N)n3)c3csc(N)n3)[C@H]2SC1 (stereo partly drawn) [3(b), (Z)-7-{α-(2-amino-4-thiazolyl)-α-[(2-amino-4-thiazolyl)methoxyimino]acetamido}-3-methylthio-3-cephem-4-carboxylic acid]			
0.78 (≈ 1.28 µM)	≤ 0.2	1.56 (≈ 2.56 µM)	0.39 (≈ 0.64 µM)	0.39 (≈ 0.64 µM)	0.78 (≈ 1.28 µM)	≤ 0.2	1.56 (≈ 2.56 µM)	1.56 (≈ 2.56 µM)	≤ 0.2	12.5 (≈ 20.5 µM)	Cn1nnnc1SCC1=C(C(=O)O)N2C(=O)C(NC(=O)/C(=N\OCc3csc(N)n3)c3csc(N)n3)C2SC1 (stereo not drawn) [Example 6]			
1.56 (≈ 2.72 µM)	0.78 (≈ 1.36 µM)	3.13 (≈ 5.46 µM)	1.56 (≈ 2.72 µM)	0.39 (≈ 0.68 µM)	1.56 (≈ 2.72 µM)	0.78 (≈ 1.36 µM)	6.25 (≈ 10.9 µM)	1.56 (≈ 2.72 µM)	≤ 0.2	12.5 (≈ 21.8 µM)	Nc1nc(CO/N=C(\C(=O)NC2C(=O)N3C(C(=O)[O-])=C(C[n+]4ccccn4)CSC23)c2csc(N)n2)cs1 (stereo not drawn) [Example 7, (Z)-7-{α-(2-amino-4-thiazolyl)-α-[(2-amino-4-thiazolyl)methoxyimino]acetamido}-3-(1-pyridadiniomethyl)-3-cephem-4-carboxylate]			
1.56 (≈ 2.72 µM)	0.78 (≈ 1.36 µM)	1.56 (≈ 2.72 µM)	0.78 (≈ 1.36 µM)	0.78 (≈ 1.36 µM)	0.78 (≈ 1.36 µM)	≤ 0.2	6.25 (≈ 10.9 µM)	1.56 (≈ 2.72 µM)	≤ 0.2	3.13 (≈ 5.47 µM)	Nc1nc(CO/N=C(\C(=O)NC2C(=O)N3C(C(=O)[O-])=C(C[n+]4ccccc4)CSC23)c2csc(N)n2)cs1 (stereo not drawn) [Example 8, (Z)-7-{α-(2-amino-4-thiazolyl)-α-[(2-amino-4-thiazolyl)methoxyimino]acetamido}-3-(1-pyridiniummethyl)-3-cephem-4-carboxylate]			
1.56 (≈ 2.53 µM)	≤ 0.2	1.56 (≈ 2.53 µM)	0.39 (≈ 0.633 µM)	0.78 (≈ 1.27 µM)	1.56 (≈ 2.53 µM)	0.39 (≈ 0.633 µM)	3.13 (≈ 5.08 µM)	1.56 (≈ 2.53 µM)	≤ 0.2	6.25 (≈ 10.2 µM)	NC(=O)c1cc[n+](CC2=C(C(=O)[O-])N3C(=O)C(NC(=O)/C(=N\OCc4csc(N)n4)c4csc(N)n4)C3SC2)cc1 (stereo not drawn) [Example 9, (Z)-7-{α-(2-amino-4-thiazolyl)-α-[(2-amino-4-thiazolyl)methoxyimino]acetamido}-3-(4-carbamoyl-1-pyridiniummethyl)-3-cephem-4-carboxylate]			
